Where two headings read alike, the source gives them in different places.
Key:
Format in all cases: biochemical
[1] = molecular target: T1, PDE1A (Homo sapiens, UniProt P54750); test: Phosphodiesterase enzyme screening assay, PDE1A
T1 construct: purchased Reaction Biology Corporation, Malvern, Pa
Procedure, shortened: (§1)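 Recombinant enzymes were run in 100 mM HEPES pH 7.5, 5 mM MgCl2, 1 mM DTT, 0.003% Brij with 4.0 μM cGMP substrate, started with cGMP or cAMP, 1 h at RT, and stopped with EDTA. Fluorescent substrate and product were separated by microfluidic mobility shift.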

[2] = molecular target: T2, PDE9A2 (Homo sapiens, UniProt O76083); test: Phosphodiesterase enzyme screening assay, PDE9A2
T2 construct: purchased Reaction Biology Corporation, Malvern, Pa
Procedure, shortened: as §1

[3] = molecular target: T3, PDE1B (Homo sapiens, UniProt Q01064); test: Phosphodiesterase enzyme screening assay, PDE1B
T3 construct: purchased Reaction Biology Corporation, Malvern, Pa
Procedure, shortened: as §1

[4] = Table 2, ratio of IC50 values, value greater than 1 indicates greater selectivity for PDE9A2
[5] = Table 2, 10 concentrations, 4.0 μM cGMP substrate, 1 hour at R.T., read-out: Band (PDE9A2 IC50)
[6] = ratio of IC50 values, value greater than 1 indicates greater selectivity for PDE9A2
[7] = Table 1, ratio of IC50 values, value greater than 1 indicates greater selectivity for PDE9A2
[8] = Table 1, 10 concentrations, 4.0 μM cGMP substrate, 1 hour at R.T., read-out: Band (PDE9A2 IC50)
[9] = ratio of IC50 values, PDE1A versus PDE9A2, value greater than 1 indicates greater selectivity for PDE9A2
[10] = ratio of IC50 values, PDE1B versus PDE9A2, value greater than 1 indicates greater selectivity for PDE9A2
[11] = ratio of IC50 values PDE1A vs PDE9A2, value greater than 1 indicates greater selectivity for PDE9A2
[12] = IC50 band, 4.0 μM cGMP substrate, 1 hour at R.T.
[13] = ratio of IC50 values PDE1B vs PDE9A2, value greater than 1 indicates greater selectivity for PDE9A2

T1 sequence (P54750 whole entry): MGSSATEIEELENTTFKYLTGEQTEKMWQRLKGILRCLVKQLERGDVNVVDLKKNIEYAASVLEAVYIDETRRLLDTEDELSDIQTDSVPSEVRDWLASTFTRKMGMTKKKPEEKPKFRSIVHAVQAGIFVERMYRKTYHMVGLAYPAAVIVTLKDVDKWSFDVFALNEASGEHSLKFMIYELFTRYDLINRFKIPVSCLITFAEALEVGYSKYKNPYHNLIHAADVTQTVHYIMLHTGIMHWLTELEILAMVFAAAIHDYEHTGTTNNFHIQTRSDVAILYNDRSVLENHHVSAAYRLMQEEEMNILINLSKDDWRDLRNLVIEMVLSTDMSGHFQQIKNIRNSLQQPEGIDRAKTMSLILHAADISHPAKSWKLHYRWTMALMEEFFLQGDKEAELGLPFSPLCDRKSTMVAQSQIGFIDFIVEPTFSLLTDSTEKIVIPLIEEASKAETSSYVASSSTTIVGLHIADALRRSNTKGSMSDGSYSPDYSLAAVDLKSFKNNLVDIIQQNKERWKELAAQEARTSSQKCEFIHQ
T2 sequence (O76083 1-533 isoform O76083-2): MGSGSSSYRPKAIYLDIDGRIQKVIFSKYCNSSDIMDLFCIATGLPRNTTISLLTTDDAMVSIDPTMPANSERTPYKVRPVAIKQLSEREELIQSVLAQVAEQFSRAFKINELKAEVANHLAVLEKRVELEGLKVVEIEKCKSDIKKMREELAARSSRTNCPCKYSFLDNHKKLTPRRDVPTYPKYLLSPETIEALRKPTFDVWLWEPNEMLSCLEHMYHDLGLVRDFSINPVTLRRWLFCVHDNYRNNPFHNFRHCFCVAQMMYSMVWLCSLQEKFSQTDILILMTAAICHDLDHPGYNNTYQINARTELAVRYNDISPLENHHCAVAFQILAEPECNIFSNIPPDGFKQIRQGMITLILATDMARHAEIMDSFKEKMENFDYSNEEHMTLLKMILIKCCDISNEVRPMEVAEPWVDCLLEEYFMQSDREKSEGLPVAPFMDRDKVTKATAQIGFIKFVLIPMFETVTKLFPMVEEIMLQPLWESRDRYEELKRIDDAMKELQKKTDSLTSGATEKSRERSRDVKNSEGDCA
T3 sequence (Q01064 whole entry): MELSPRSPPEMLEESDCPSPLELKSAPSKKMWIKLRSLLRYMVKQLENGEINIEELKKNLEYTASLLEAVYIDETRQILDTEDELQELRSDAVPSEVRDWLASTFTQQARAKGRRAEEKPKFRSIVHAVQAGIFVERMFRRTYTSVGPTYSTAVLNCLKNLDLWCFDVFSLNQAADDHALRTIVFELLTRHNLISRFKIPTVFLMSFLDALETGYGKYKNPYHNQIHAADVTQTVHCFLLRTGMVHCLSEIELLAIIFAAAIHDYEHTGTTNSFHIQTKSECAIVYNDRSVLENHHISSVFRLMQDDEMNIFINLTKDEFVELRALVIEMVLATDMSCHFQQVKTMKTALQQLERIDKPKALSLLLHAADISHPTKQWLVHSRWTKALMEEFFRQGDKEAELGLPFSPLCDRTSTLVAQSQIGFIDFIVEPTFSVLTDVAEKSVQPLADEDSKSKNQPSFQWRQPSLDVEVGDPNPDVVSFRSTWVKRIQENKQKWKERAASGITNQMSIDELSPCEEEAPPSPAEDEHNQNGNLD

Q: For `CC1CN(Cc2ncc(Cl)cn2)CC1c1nn2c(C3CCOCC3)ncc2c(=O)[nH]1` (single isomer, unassigned; (+)) [(+)-2-((3,4-trans)-1-((5-chloropyrimidin-2-yl)methyl)-4-methylpyrrolidin-3-yl)-7-(tetrahydro-2H-pyran-4-yl)imidazo[5,1-f][1,2,4]triazin-4(3H)-one], which “PDE1A selectivity (versus PDE9A2)” value [1, 4] is on record?
A: 95

Q: And the IC50 [2, 5]?
A: < 1 µM

Q: And the “PDE1B selectivity (versus PDE9A2)” value [3, 4]?
A: 154

Q: Which results are given for `CC1CN(Cc2ncon2)CC1c1nn2c(C3CCOCC3)ncc2c(=O)[nH]1` (single isomer, unassigned; (+)) [(+)-2-((3,4-trans)-1-((1,2,4-oxadiazol-3-yl)methyl)-4-methylpyrrolidin-3-yl)-7-(tetrahydro-2H-pyran-4-yl)imidazo[5,1-f][1,2,4]triazin-4(3H)-one]?
A: PDE1A selectivity (versus PDE9A2) [1, 6]: 35; IC50 ([2]; read-out: Band (PDE9A2 IC50)): < 1 µM; PDE1B selectivity (versus PDE9A2) [3, 6]: 63

Q: `CC1CN(Cc2cccc(N3CCCC3)c2)CC1c1nn2c(C3CCOCC3)ncc2c(=O)[nH]1` (single isomer, unassigned; (+)) [(+)-2-((3,4-trans)-4-methyl-1-(3-(pyrrolidin-1-yl)benzyl)pyrrolidin-3-yl)-7-(tetrahydro-2H-pyran-4-yl)imidazo[5,1-f][1,2,4]triazin-4(3H)-one] was tested. Which “PDE1A selectivity (versus PDE9A2)” value [1, 7] did it give?
A: 700

Q: What about the IC50 [2, 8] of the same compound?
A: < 1 µM

Q: What about the “PDE1B selectivity (versus PDE9A2)” value [3, 7] of the same compound?
A: 1190

Q: How did the “PDE1A selectivity (versus PDE9A2)” value [1, 6] turn out when `CC1CN(Cc2ncn(C)n2)CC1c1nn2c(C3CCOCC3)ncc2c(=O)[nH]1` (single isomer, unassigned; (+)) [(+)-2-((3,4-trans)-4-methyl-1-((1-methyl-1H-1,2,4-triazol-3-yl)methyl)pyrrolidin-3-yl)-7-(tetrahydro-2H-pyran-4-yl)imidazo[5,1-f][1,2,4]triazin-4(3H)-one] was run?
A: 208

Q: What about the IC50 ([2]; read-out: Band (PDE9A2 IC50)) of the same compound?
A: < 1 µM

Q: And the “PDE1B selectivity (versus PDE9A2)” value [3, 6]?
A: 266

Q: Which “PDE1A selectivity (versus PDE9A2)” value ([1]; ratio of IC50 values PDE1A / PDE9A2, value greater than 1 = greater selectivity for PDE9A2) does the source give for `CC1CN(Cc2cccs2)CC1c1nn2c(C3CCOCC3)ncc2c(=O)[nH]1` (single isomer, unassigned; (+)) [(+)-2-((3,4-trans)-4-methyl-1-(thiophen-2-ylmethyl)pyrrolidin-3-yl)-7-(tetrahydro-2H-pyran-4-yl)imidazo[5,1-f][1,2,4]triazin-4(3H)-one] here?
A: 91

Q: What about the IC50 ([2]; 4.0 μM cGMP substrate, 1 hour at R.T., read-out: Band (PDE9A2 IC50)) of the same compound?
A: < 1 µM

Q: What about the “PDE1B selectivity (versus PDE9A2)” value ([3]; ratio of IC50 values PDE1B / PDE9A2, value greater than 1 = greater selectivity for PDE9A2) of the same compound?
A: 140

Q: Which results are given for `Cc1cc(F)c(F)cc1-c1ncc2c(=O)[nH]c(C3CN(Cc4ccc(F)cc4)CC3C)nn12` (single isomer, unassigned; (+)) [(+)-7-(4,5-difluoro-2-methylphenyl)-2-((3,4-trans)-1-(4-fluorobenzyl)-4-methylpyrrolidin-3-yl)imidazo[5,1-f][1,2,4]triazin-4(3H)-one]?
A: PDE1A selectivity (versus PDE9A2) [1, 9]: 232; IC50 ([2]; read-out: Band (PDE9A2 IC50)): < 1 µM; PDE1B selectivity (versus PDE9A2) [3, 10]: 179

Q: Which results are given for `CC1CN(Cc2cnccn2)CC1c1nn2c(-c3ccc(F)cc3)ncc2c(=O)[nH]1` (single isomer, unassigned; (+)) [(+)-7-(4-fluorophenyl)-2-((3,4-trans)-4-methyl-1-(pyrazin-2-ylmethyl)pyrrolidin-3-yl)imidazo[5,1-f][1,2,4]triazin-4(3H)-one]?
A: PDE1A selectivity (versus PDE9A2) [1, 9]: 9; IC50 ([2]; read-out: Band (PDE9A2 IC50)): < 1 µM; PDE1B selectivity (versus PDE9A2) [3, 10]: 8

Q: Which results are given for `CC1CN(Cc2ccccc2C#N)CC1c1nn2c(C3CCOCC3)ncc2c(=O)[nH]1` (single isomer, unassigned; (+)) [(+)-2-(((3,4-trans)-3-methyl-4-(4-oxo-7-(tetrahydro-2H-pyran-4-yl)-3,4-dihydroimidazo[5,1-f][1,2,4]triazin-2-yl)pyrrolidin-1-yl)methyl)benzonitrile]?
A: PDE1A selectivity (versus PDE9A2) [1, 7]: 241; IC50 [2, 8]: < 1 µM; PDE1B selectivity (versus PDE9A2) [3, 7]: 220

Q: Which “PDE1A selectivity (versus PDE9A2)” value [1, 7] does the source give for `CC1CN(CCc2ccccc2)CC1c1nn2c(C3CCOCC3)ncc2c(=O)[nH]1` (single isomer, unassigned; (+)) [(+)-2-((3,4-trans)-4-methyl-1-phenethylpyrrolidin-3-yl)-7-(tetrahydro-2H-pyran-4-yl)imidazo[5,1-f][1,2,4]triazin-4(3H)-one] here?
A: 28

Q: And the IC50 [2, 8]?
A: < 1 µM

Q: And the “PDE1B selectivity (versus PDE9A2)” value [3, 7]?
A: 23

Q: Which results are given for `COc1cnc(CN2CC(C)C(c3nn4c(C5CCOCC5)ncc4c(=O)[nH]3)C2)nc1` (single isomer, unassigned; (+)) [(+)-2-((3,4-trans)-1-((5-methoxypyrimidin-2-yl)methyl)-4-methylpyrrolidin-3-yl)-7-(tetrahydro-2H-pyran-4-yl)imidazo[5,1-f][1,2,4]triazin-4(3H)-one]?
A: PDE1A selectivity (versus PDE9A2) [1, 4]: 26; IC50 [2, 5]: < 1 µM; PDE1B selectivity (versus PDE9A2) [3, 4]: 64

Q: Which results are given for `CC1CN(Cc2ccccc2C(F)(F)F)CC1c1nn2c(C3CCOCC3)ncc2c(=O)[nH]1` (single isomer, unassigned; (+)) [(+)-2-((3,4-trans)-4-methyl-1-(2-(trifluoromethyl)benzyl)pyrrolidin-3-yl)-7-(tetrahydro-2H-pyran-4-yl)imidazo[5,1-f][1,2,4]triazin-4(3H)-one]?
A: PDE1A selectivity (versus PDE9A2) [1, 7]: 73; IC50 [2, 8]: < 1 µM; PDE1B selectivity (versus PDE9A2) [3, 7]: 16

Q: What does the source list for `Cc1cc(F)ccc1-c1ncc2c(=O)[nH]c(C3CN(Cc4cnccn4)CC3C)nn12` (single isomer, unassigned; (+)) [(+)-7-(4-fluoro-2-methylphenyl)-2-((3,4-trans)-4-methyl-1-(pyrazin-2-ylmethyl)pyrrolidin-3-yl)imidazo[5,1-f][1,2,4]triazin-4(3H)-one]?
A: PDE1A selectivity (versus PDE9A2) [1, 11]: 342; IC50 [2, 12]: < 1 µM; PDE1B selectivity (versus PDE9A2) [3, 13]: 393

Q: With `CC1CN(Cc2cccc(OC(F)(F)F)c2)CC1c1nn2c(C3CCOCC3)ncc2c(=O)[nH]1` (single isomer, unassigned; (+)) [(+)-2-((3,4-trans)-4-methyl-1-(3-(trifluoromethoxy)benzyl)pyrrolidin-3-yl)-7-(tetrahydro-2H-pyran-4-yl)imidazo[5,1-f][1,2,4]triazin-4(3H)-one] as the compound, how does the “PDE1A selectivity (versus PDE9A2)” value [1, 7] read?
A: 261

Q: What about the IC50 [2, 8] of the same compound?
A: < 1 µM

Q: What about the “PDE1B selectivity (versus PDE9A2)” value [3, 7] of the same compound?
A: 99

Q: `CC1CN(Cc2nccn2C)CC1c1nn2c(C3CCOCC3)ncc2c(=O)[nH]1` (single isomer, unassigned; (+)) [(+)-2-((3,4-trans)-4-methyl-1-((1-methyl-1H-imidazol-2-yl)methyl)pyrrolidin-3-yl)-7-(tetrahydro-2H-pyran-4-yl)imidazo[5,1-f][1,2,4]triazin-4(3H)-one] was tested. Which “PDE1A selectivity (versus PDE9A2)” value [1, 6] did it give?
A: 197

Q: And the IC50 ([2]; read-out: Band (PDE9A2 IC50))?
A: < 1 µM

Q: And the “PDE1B selectivity (versus PDE9A2)” value [3, 6]?
A: 107

Q: What does the source list for `Cc1cc(F)ccc1-c1ncc2c(=O)[nH]c(C3CN(Cc4nc5ccccn5n4)CC3C)nn12` (single isomer, unassigned; (+)) [(+)-2-((3,4-trans)-1-([1,2,4]triazolo[1,5-a]pyridin-2-ylmethyl)-4-methylpyrrolidin-3-yl)-7-(4-fluoro-2-methylphenyl)imidazo[5,1-f][1,2,4]triazin-4(3H)-one]?
A: PDE1A selectivity (versus PDE9A2) [1, 11]: 215; IC50 [2, 12]: < 1 µM; PDE1B selectivity (versus PDE9A2) [3, 13]: 473

Q: Which “PDE1A selectivity (versus PDE9A2)” value [1, 9] does the source give for `Cc1ccccc1-c1ncc2c(=O)[nH]c(C3CN(Cc4ccccc4)CC3C)nn12` (single isomer, unassigned; (+)) [(+)-2-((3,4-trans)-1-benzyl-4-methylpyrrolidin-3-yl)-7-(o-tolyl)imidazo[5,1-f][1,2,4]triazin-4(3H)-one] here?
A: 461

Q: What about the IC50 ([2]; read-out: Band (PDE9A2 IC50)) of the same compound?
A: < 1 µM

Q: What about the “PDE1B selectivity (versus PDE9A2)” value [3, 10] of the same compound?
A: 531

Q: Which results are given for `CC1CN(Cc2ccc3ncncc3c2)CC1c1nn2c(C3CCOCC3)ncc2c(=O)[nH]1` (single isomer, unassigned; (+)) [(+)-2-((3,4-trans)-4-methyl-1-(quinazolin-6-ylmethyl)pyrrolidin-3-yl)-7-(tetrahydro-2H-pyran-4-yl)imidazo[5,1-f][1,2,4]triazin-4(3H)-one]?
A: PDE1A selectivity (versus PDE9A2) [1, 7]: 890; IC50 [2, 8]: < 1 µM; PDE1B selectivity (versus PDE9A2) [3, 7]: 1067

Q: Which “PDE1A selectivity (versus PDE9A2)” value [1, 9] does the source give for `CC1CN(Cc2ccccc2)CC1c1nn2c(-c3ccccc3)ncc2c(=O)[nH]1` (single isomer, unassigned; (+)) [(+)-2-((3,4-trans)-1-benzyl-4-methylpyrrolidin-3-yl)-7-phenylimidazo[5,1-f][1,2,4]triazin-4(3H)-one] here?
A: 4

Q: What about the IC50 ([2]; read-out: Band (PDE9A2 IC50)) of the same compound?
A: < 1 µM

Q: And the “PDE1B selectivity (versus PDE9A2)” value [3, 10]?
A: 12

Q: Which “PDE1A selectivity (versus PDE9A2)” value ([1]; ratio of IC50 values, PDE1A versus PDE9A2, value greater than 1 = greater selectivity for PDE9A2) does the source give for `CC1CN(Cc2ccnn2C)CC1c1nn2c(C3CCOCC3)ncc2c(=O)[nH]1` (single isomer, unassigned; (+)) [(+)-2-((3,4-trans)-4-methyl-1-((1-methyl-1H-pyrazol-5-yl)methyl)pyrrolidin-3-yl)-7-(tetrahydro-2H-pyran-4-yl)imidazo[5,1-f][1,2,4]triazin-4(3H)-one] here?
A: 243

Q: What about the IC50 ([2]; Table 3, 4.0 μM cGMP substrate, 1 hour at R.T., read-out: Band (PDE9A2 IC50)) of the same compound?
A: < 1 µM

Q: And the “PDE1B selectivity (versus PDE9A2)” value ([3]; ratio of IC50 values, PDE1B versus PDE9A2, value greater than 1 = greater selectivity for PDE9A2)?
A: 370
